Laboratory results as given in the supplement of paper PMC10307832.

Tests used:
Test in all cases: relative viability (nuclei count vs DMSO), 5 days (fraction); higher = more cells survive
[1] = compound: CC1(C)CNc2cc(NC(=O)c3cccnc3NCc3ccncc3)ccc21 [Motesanib] + Nc1ncn([C@H]2C[C@H](O)[C@@H](CO)O2)c(=O)n1 [Decitabine] (partner 2 µM)
Outline: (§1)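 After 5 days of treatment, lung cancer cells in 1536-well plates were fixed and stained in a single step (final 0.05% Triton X-100, 1% formaldehyde, 1 ug/ml Hoechst) and their nuclei counted on 4× images. Treatment had been applied by pin tool the day after seeding as one drug alone or as a fixed anchor-drug dose with five library-drug doses (not always all listed) in √10 steps. Relative viability is the nuclei count of treated wells divided by that of vehicle wells, and values are medians of duplicate plates.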

[2] = compound: CC1(C)CNc2cc(NC(=O)c3cccnc3NCc3ccncc3)ccc21 [Motesanib] + N=C(N)NC(=N)NCCc1ccccc1 [Phenformin] (partner 250 µM)
Outline: as §1

[3] = compound: CC1(C)CNc2cc(NC(=O)c3cccnc3NCc3ccncc3)ccc21 [Motesanib] + CC(=O)Nc1cccc(-n2c(=O)n(C3CC3)c(=O)c3c(Nc4ccc(I)cc4F)n(C)c(=O)c(C)c32)c1 [Trametinib] (partner 0.02 µM)
Outline: as §1

[4] = compound: C[C@@]1(C(=O)Nc2ccc(F)nc2)CCCN1c1nc(Nc2cc(C3CC3)n[nH]2)c2cccn2n1 + CC1(C)CCC(c2ccc(Cl)cc2)=C(CN2CCN(c3ccc(C(=O)NS(=O)(=O)c4ccc(N[C@H](CCN5CCOCC5)CSc5ccccc5)c(S(=O)(=O)C(F)(F)F)c4)cc3)CC2)C1 [Navitoclax] (partner 0.5 µM)
Outline: as §1

Cell Line	relative viability ([1]; first compound 0.01 µM)	relative viability ([1]; first compound 0.03162 µM)	relative viability ([1]; first compound 0.1 µM)	relative viability ([1]; first compound 0.3162 µM)	relative viability ([1]; first compound 1 µM)	relative viability ([2]; first compound 0.01 µM)	relative viability ([2]; first compound 0.03162 µM)	relative viability ([2]; first compound 0.1 µM)	relative viability ([2]; first compound 0.3162 µM)	relative viability ([2]; first compound 1 µM)	relative viability ([3]; first compound 0.01 µM)	relative viability ([3]; first compound 0.03162 µM)	relative viability ([3]; first compound 0.1 µM)	relative viability ([3]; first compound 0.3162 µM)	relative viability ([3]; first compound 1 µM)	relative viability ([4]; first compound 0.04 µM)	relative viability ([4]; first compound 0.1265 µM)	relative viability ([4]; first compound 0.4 µM)	relative viability ([4]; first compound 1.265 µM)
NCI-H2342	0.765	0.608	0.759	0.765	0.9	0.448	0.588	0.807	0.562	0.662	0.933	0.715	0.907	0.77	0.959	–	–	–	–
HCC-15	0.592	0.621	0.648	0.81	0.69	0.416	0.376	0.497	0.527	0.503	0.377	0.335	0.364	0.406	0.376	0.663	0.561	0.528	0.58
A-427	0.563	0.554	0.544	0.568	0.556	0.239	0.294	0.319	0.374	0.323	0.742	0.702	0.774	0.775	0.762	0.885	0.988	1.03	0.915
NCI-H2228	–	–	–	–	–	0.26	0.329	0.257	0.394	0.208	0.395	0.764	0.459	0.505	0.466	0.561	0.762	0.723	0.633
NCI-H1734	0.51	0.675	0.695	0.613	0.869	0.36	0.368	–	0.36	0.468	0.6	0.625	0.644	0.676	0.723	0.834	0.593	0.661	0.731
PC-14	0.243	0.174	0.275	0.257	0.231	0.471	0.53	0.663	0.604	0.586	0.809	0.8	0.817	0.79	0.93	0.99	0.69	0.959	0.941
NCI-H1915	0.272	0.262	0.36	0.306	0.383	0.395	0.362	0.249	0.375	0.357	0.209	0.338	0.318	0.288	0.365	0.774	0.767	0.836	0.779
NCI-H1666	0.67	0.748	0.885	0.762	0.813	0.558	0.552	0.591	0.607	0.612	0.736	0.904	0.905	0.858	0.838	0.823	0.777	0.578	0.581
HCC-366	0.381	0.439	0.416	0.397	0.635	0.628	0.53	0.619	0.643	0.587	0.396	0.302	0.282	0.385	0.334	1.12	0.966	0.688	1.19
SK-MES-1	0.358	0.383	0.59	0.561	0.695	0.624	0.588	0.714	0.703	0.658	0.575	0.587	0.593	0.565	0.617	1.3	0.995	–	1.1
SW 1573	0.532	0.511	0.458	0.586	0.553	0.468	0.343	0.388	0.36	0.421	0.613	0.503	0.721	0.593	0.628	0.875	0.471	0.655	0.8
NCI-H661	0.486	0.528	0.556	0.631	0.625	0.292	0.268	0.28	0.292	0.268	0.485	0.547	0.606	0.547	0.571	–	–	–	–
PC-3 [JPC-3]	0.803	0.836	0.858	0.897	1.01	0.482	0.478	0.458	0.512	0.507	0.745	0.676	0.795	0.779	0.703	0.777	0.716	0.789	0.743
NCI-H1623	–	–	–	–	–	0.551	0.613	0.594	0.617	0.578	–	–	–	–	–	–	–	–	–
Calu-6	–	–	–	–	–	–	–	–	–	–	–	–	–	–	–	0.83	0.637	0.62	0.141
LC-2-ad	0.776	0.758	0.776	0.772	0.753	0.531	0.664	0.566	0.566	0.534	0.9	0.903	0.865	0.871	0.84	0.379	0.373	0.296	0.143
